Patent USRE47221E1, “Tricyclic compounds” (AbbVie Inc., priority 2009, dated 2019)

Legend:
[1] = molecular target: T1, Jak3 (Homo sapiens, UniProt P52333); experiment: Jak3 enzyme data for selected compounds; type: biochemical
T1 construct: Jak3 enzyme (aa 811-1103); expressed in SF9 cells as a GST fusion; GST; made in house; host or cells: SF9 insect cells
T1 sequence (P52333 811-1103): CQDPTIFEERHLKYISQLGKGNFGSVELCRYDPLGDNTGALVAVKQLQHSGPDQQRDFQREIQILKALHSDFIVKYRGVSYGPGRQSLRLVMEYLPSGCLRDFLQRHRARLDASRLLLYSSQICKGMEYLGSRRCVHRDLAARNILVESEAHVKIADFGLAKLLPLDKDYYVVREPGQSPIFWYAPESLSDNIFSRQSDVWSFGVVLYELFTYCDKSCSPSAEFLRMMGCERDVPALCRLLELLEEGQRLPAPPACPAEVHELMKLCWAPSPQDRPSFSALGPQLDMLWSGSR

| Structure (SMILES) | melting point | IC50 [1] |
| --- | --- | --- |
| C[C@@H]1C[C@H](NS(=O)(=O)CCC(F)(F)F)C[C@@H]1c1cnc2cnc3[nH]ccc3n12 [Example #7, N-((1S,3S,4R)-3-(3H-imidazo[1,2-a]pyrrolo[2,3-e]pyrazin-8-yl)-4-methylcyclopentyl)-3,3,3-trifluoropropane-1-sulfonamide] | 225 °C | – |
| O=C(N1CCCC1)N1CCC[C@@H](c2ncc3cnc4[nH]ccc4n23)C1 [I.3.1] | – | 100 to 1000 nM |
| C[C@@H]1CCN(C(=O)N2CCC[C@@H]2C#N)C[C@@H]1c1ncc2cnc3[nH]ccc3n12 [J.2.2] | – | < 100 nM |
| C[C@@H]1CCN(C(=O)N2CCC[C@H]2C#N)C[C@@H]1c1ncc2cnc3[nH]ccc3n12 [J.2.3] | – | < 100 nM |
| C[C@@H]1CCN(C(=O)N2CC(F)(F)C2)C[C@@H]1c1ncc2cnc3[nH]ccc3n12 [J.2.5] | – | < 100 nM |
| C[C@@H]1CCN(C(=O)N2CCC2)C[C@@H]1c1ncc2cnc3[nH]ccc3n12 [J.2.6] | – | < 100 nM |
| C[C@@H]1CCN(C(=O)N2CC[C@@H](F)C2)C[C@@H]1c1ncc2cnc3[nH]ccc3n12 [J.2.7] | – | < 100 nM |
| C[C@@H]1CCN(C(=O)N2CCC(F)(F)C2)C[C@@H]1c1ncc2cnc3[nH]ccc3n12 [J.2.8] | – | < 100 nM |
| C[C@@H]1CCN(C(=O)N2CCC[C@@H]2CO)C[C@@H]1c1ncc2cnc3[nH]ccc3n12 [J.2.9] | – | < 100 nM |
| C[C@@H]1CCN(C(=O)N2CC(F)C2)C[C@@H]1c1ncc2cnc3[nH]ccc3n12 [J.2.11] | – | < 100 nM |
| C[C@@H]1CCN(C(=O)N2CC[C@H](F)C2)C[C@@H]1c1ncc2cnc3[nH]ccc3n12 [J.2.12] | – | < 100 nM |
| C[C@@H]1CCN(C(=O)N2CCC[C@H]2C)C[C@@H]1c1ncc2cnc3[nH]ccc3n12 [J.2.13] | – | < 100 nM |
| C[C@@H]1CCN(C(=O)N2CCCCCC2)C[C@@H]1c1ncc2cnc3[nH]ccc3n12 [J.2.14] | – | < 100 nM |
| C[C@@H]1CCN(C(=O)N2CCC[C@@H]2C(F)(F)F)C[C@@H]1c1ncc2cnc3[nH]ccc3n12 [J.2.15] | – | < 100 nM |
| O=C(N1CCC[C@@H](c2ncc3cnc4[nH]ccc4n23)C1)N1CC(F)(F)C1 [J.3.1] | – | < 100 nM |
| O=C(N1CCC[C@@H](c2ncc3cnc4[nH]ccc4n23)C1)N1CCC(F)(F)C1 [J.3.2] | – | < 100 nM |

The next lines start with the values.

| melting point | IC50 [1] | Structure (SMILES) |
| --- | --- | --- |
| – | < 100 nM | N#CC1CN(C(=O)N2CCC[C@@H](c3ncc4cnc5[nH]ccc5n34)C2)C1 [J.3.4] |
| – | 100 to 1000 nM | CC1(C)CCN(C(=O)N2CCC[C@@H](c3ncc4cnc5[nH]ccc5n34)C2)C1 [J.3.6] |
| – | 100 to 1000 nM | O=C(N1CCC[C@@H](c2ncc3cnc4[nH]ccc4n23)C1)N1CCCC(F)(F)C1 [J.3.7] |
| – | 100 to 1000 nM | N#CC1CCN(C(=O)N2CCC[C@@H](c3ncc4cnc5[nH]ccc5n34)C2)CC1 [J.3.8] |
| – | < 100 nM | CC1(C)CCN(C(=O)N2CCC[C@@H](c3ncc4cnc5[nH]ccc5n34)C2)CC1 [J.3.10] |
| – | < 100 nM | O=C(N1CCC(Cl)CC1)N1CCC[C@@H](c2ncc3cnc4[nH]ccc4n23)C1 [J.3.11] |
| – | 100 to 1000 nM | O=S(=O)(NC12CCC(c3cnc4cnc5[nH]ccc5n34)(CC1)CC2)C1CC1 [K.3.1] |
| – | < 100 nM | CC[C@@H]1C[C@H](NS(=O)(=O)CCC(F)(F)F)CN1c1cnc2cnc3[nH]ccc3n12 [K.4.1] |
| – | < 100 nM | CC[C@@H]1C[C@H](NS(=O)(=O)CC(F)(F)F)C[C@@H]1c1nnc2cnc3[nH]ccc3n12 [K.5.1] |
| – | 100 to 1000 nM | CC[C@@H]1C[C@H](NS(=O)(=O)C2CC2)C[C@@H]1c1nnc2cnc3[nH]cc(C)c3n12 [LL.1.1] |
| – | > 1000 nM | CC[C@@H]1C[C@H](N(CO)S(=O)(=O)C2CC2)C[C@@H]1c1nnc2cnc3[nH]cc(C)c3n12 [LL.1.2] |
| – | > 1000 nM | CC[C@@H]1C[C@H](NS(=O)(=O)C2CC2)C[C@@H]1c1nnc2cnc3[nH]cc(C#N)c3n12 [LL.1.3] |
| – | > 1000 nM | CC[C@@H]1C[C@H](S(=O)(=O)CC(F)(F)F)C[C@@H]1c1nnc2cnc3[nH]ccc3n12 [LL.1.4] |
| – | 100 to 1000 nM | CC[C@@H]1C[C@H](NS(=O)(=O)C2CC2)C[C@@H]1c1nnc2cnc3[nH]cc(I)c3n12 [Preparation #GGG.1, N-((1S,3R,4S)-3-ethyl-4-(8-iodo-6H-pyrrolo[2,3-e][1,2,4]triazolo[4,3-a]pyrazin-1-yl)cyclopentyl)cyclopropanesulfonamide] |
| – | < 100 nM | C[C@@H]1CCN(C(=O)Nc2ccc(C#N)cc2)C[C@@H]1c1ncc2cnc3[nH]ccc3n12 [QQ.1.4] |
| – | < 100 nM | CS(=O)(=O)Nc1ccc(-c2nc(C3CCCCC3)n3c2cnc2[nH]ccc23)cc1 [UUU.1.1] |
| – | > 1000 nM | CC[C@@H]1C[C@H](NS(=O)(=O)CCn2cc(C#N)cn2)C[C@@H]1c1nnc2cnc3[nH]ccc3n12 [YY.1.1, 2-(4-cyano-1H-pyrazol-1-yl)-N-((1S,3R,4S)-3-ethyl-4-(6H-pyrrolo[2,3-e][1,2,4]triazolo[4,3-a]pyrazin-1-yl)cyclopentyl)ethanesulfonamide] |
| – | > 1000 nM | CC[C@@H]1C[C@H](NS(=O)(=O)CCn2cncn2)C[C@@H]1c1nnc2cnc3[nH]ccc3n12 [YY.1.2] |
